Assay: Drug-drug interaction: Compound 1 on PK of combined oral contraceptive DRSP/EE
Type: in vivo, human
Details: co-administration of Compound 1 (600 mg) with DRSP/EE, relative to DRSP/EE alone
Description: A Phase 1, open-label, single-center, multiple-cohort study was conducted to evaluate the effect of a mixed OATP/P-gp inhibitor (cyclosporine A; CsA) or food on the PK of Compound 1, the effect of Compound 1 on the PK of midazolam (MDZ), the effect of Compound 1 on the PK of OATP/CYP3A/BCRP substrates using atorvastatin (ATV), pravastatin (PRA), and rosuvastatin (ROS), and the effect of Compound 1 on the PK of a representative combined oral contraceptive (drospirenone/ethinyl estradiol; DRSP/EE), in healthy participants. 70 participants ages 18 to 55 years (inclusive) and having BMI of ≥18.0 kg/m^2 and ≤30.0 kg/m^2 were enrolled. For Cohorts 1-3, there were an approximately even distribution of healthy participants assigned male at birth and nonpregnant, nonlactating participants assigned female at birth. Cohort 4 included only healthy, nonpregnant, nonlactating participants assigned female at birth.
Participants in Cohort 4 received treatment sequence OPQR.
Treatment O: Single dose of DRSP 3 mg and EE 0.02 mg, administered under fasting condition on Day 1 of Period 1 […]
Concentrations of Compound 1 and its active metabolites Compound A and Compound B, MDZ and its metabolite 1-OH-MDZ, ATV and its metabolite 2-OH-ATV, PRA, ROS, DRSP, and EE in plasma PK samples were determined by validated high performance liquid chromatography tandem mass spectrometry (LC-MS/MS) bioanalytical methods.

Cn1ccc2c([C@@H](c3cn(C45CC(C4)C5)nn3)N(C(=O)OCOP(=O)(O)O)c3cc(Cl)c4ncc(C#N)c(NCC(C)(C)C)c4c3)cccc2c1=O [Compound 1]
change in AUCinf of DRSP: no change | change in Cmax of EE: no change

From patent US20250213550A1, “COMPOUNDS AND METHODS FOR TREATING INFLAMMATORY BOWEL DISEASE” (Gilead Sciences, Inc., priority 2023, published 2025)
